Data set [1] concerns guinea pig skin. The data set can be described thus: Continuous irritative test of guinea pig skin (Draize method). As to conditions: 0.5% in ethanol/propylene glycol (7:3), 3 days straight, full marks 8 points. Type of data set: in vivo, guinea pig (Hartley series). The procedure: Each left and right two spots (4 spots/head) of applying parts having a frame of 2 cm×2 cm were provided on the back of a shaved guinea pig (Hartley series, 7 weeks of age, female, N=10), and each 50 μL of an ethanol/propylene glycol (7:3) solution containing 0.5% of the respective acyl glucosamine derivatives shown in the following Table 1 was applied once a day on the respective frames.
A skin irritative score after application for 3 days straight was evaluated according to the following evaluation criteria (Draize method). The above irritative score was shown by the total points (full marks: 8 points) of erythema and edema.
Evaluation Criteria of Skin Irritative Score:
3: middle to strong erythema
4: very strong erythema to crust
1: very slight edema formation
2: slight edema formation
3: middle edema formation
4: strong edema formation

Data set [2] concerns acne patients. The data set can be described thus: Acne-improvement evaluation. In kind it is in vivo, human. The settings on record: essence with 0.05%, one month; for Evaluation X (worsened), number of subjects / Evaluation Δ (no change), number of subjects / Evaluation ⊚ (notably improved), number of subjects / Evaluation ◯ (improved), number of subjects: applied on face several times a day. The procedure: Prepared was an essence for acne shown in the following composition example in which 0.05% of various acyl glucosamine derivatives shown in the following Table 6 was blended. An essence which was not blended with an acyl glucosamine derivative was prepared as a control.
Sixty acne patients were picked up as subjects to apply everyday the respective essences on the faces thereof several times a day, and the therapeutic effect against the acnes was visually evaluated a month later according to four degrees of the following evaluation criteria.
In the four degree evaluation described above, improvement (∘) or better effect (⊚) was regarded as “effective for treating acnes”, and the subjects showing a treating effect were shown by a numerical value (percentage).

In data set [3] the test system is skin roughness in the inside of a forearm of a human being. As to the kind of experiment: Skin roughness-improving test (SDS-induced skin roughness). In kind it is in vivo. As to conditions: hydrophilic ointment with 0.05%, twice a day, 3 days; conductance relative to ointment with no tested substance = 100. The procedure:
A 10% SDS solution was used to artificially form a skin roughness in the inside of a forearm of a human being, and a hydrophilic ointment blended with 0.05% of various acyl glucosamine derivatives shown in the following Table 5 was applied thereon twice a day.
The skin roughness-improving degree observed 3 days later after application was evaluated using a change in a stratum corneum water content as an index. The stratum corneum water content is measured in terms of a conductance (μS). The improving degree was shown by a relative value, wherein the conductance observed when applying the hydrophilic ointment blended with no acyl glucosamine derivative was set at 100, and the skin roughness-improving rate was calculated according to the following equation (IV). Skin roughness-improving rate (%)=[(conductance observed when applying the ointment blended with the tested substance)/(conductance observed when applying the ointment blended with no tested substance)]×100 (IV)

In data set [4] the test system is back skin of hairless mice irradiated with UVB. The data set can be described thus: Wrinkle-improving test. Type of data set: in vivo, hairless mice (hos: HR-1). The settings on record: 0.05% in ethanol/propylene glycol (7:3), 100 μL once a day, five times a week, 8 weeks; versus control group. How it is done:
Four (4) hairless mice per 1 group (hos: HR-1, 10 weeks of age, female) were irradiated on the back skin once a day with UVB at 50 mJ/cm^2 five times a week over a period of 10 weeks. After finishing irradiation, each 100 μL of an ethanol/propylene glycol (7:3) solution containing 0.05% of various acyl glucosamine derivatives shown in the following Table 3 was applied on the mouse back in a frequency of once a day and five times a week over 8 weeks.
After finishing application for 8 weeks, the degree of wrinkles was visually evaluated according to the following evaluation criteria and calculation equation. A control group applied with the ethanol/propylene glycol (7:3) solution was evaluated as a control in the same manner.
Evaluation Criteria of the Degree of Wrinkles:
Evaluation point 0: a lot of fine striations is present on the back and the flank; fine striations run in a direction from the head to the tail; and the striations appear or disappear with the motion of the mouse.
Evaluation point 1: all fine striations along the spine are not observed; a few shallow and coarse wrinkles run perpendicularly to the head-to-tail direction; and the striations appear or disappear with the motion of the mouse.
The respective bodies were evaluated by an evaluation point of a 0.5 unit to calculate an average point for the respective groups, and the wrinkle-improving rate was calculated for the respective groups according to the following equation (II). Wrinkle-improving rate (%)=[(average value of the control group−average value of a glucosamine derivative-applied group)/(average value of the control group)]×100 (II)

The test system is the same in data set [5]. The data set can be described thus: Coarse texture-improving test. The settings on record: 0.05% in ethanol/propylene glycol (7:3), 100 μL, 4 weeks; texture intersection points relative to non-irradiated group (control 24). Type of data set: in vivo, hairless mice (hos: HR-1). The procedure: Four (4) hairless mice per 1 group (hos: HR-1, 10 weeks of age, female) were irradiated on the back skin once a day with UVB at 40 mJ/cm^2 three times a week over a period of 6 weeks. After finishing irradiation, each 100 μL of an ethanol/propylene glycol (7:3) solution containing 0.05% of various acyl glucosamine derivatives shown in the following Table 4 or an ethanol/propylene glycol (7:3) solution as a control was applied on the mouse back in a frequency of once a day and five times a week over 4 weeks.
After finishing application, a replica agent (brand name SILFLO®; manufactured by UK FLEXICO DEVELOPMENTS LTD.) was used to obtain a replica of a mouse back skin. A replica of a UV-non-irradiated group (4 heads) was obtained as a control in the same manner.
The enlarged photographs of the respective replicas were taken through a macro lens (magnification: four times), and the photographs were used to evaluate “coarsening of the texture”.
The coarseness of the texture was defined by a “number of texture intersection point”, wherein a point in which three or more sulci cutis are joined is counted as one intersection point, and the number of the texture intersection points present in a square of 1 cm×1 cm was counted on the replica photograph.
An average point for the respective groups was calculated, and the texture-improving rate was calculated according to the following equation (III). Texture-improving rate (%)=[(number of texture intersection of applied group)/(number of texture intersection point of non-irradiated group)]×100 (III)

In data set [6] the test system is pigmentation on the backs of color guinea pigs. The data set can be described thus: Whitening evaluation (UV-induced pigmentation). In kind it is in vivo. As to conditions: 0.05% in ethanol/propylene glycol (7:3), 30 μL once a day, five times a week, 4 weeks; visual change in pigmentation. Further details: key: +++: notably improved; ++: improved; +: a little improved; ±: no change. How it is done:
Back body hair of color guinea pigs were shaved by means of a hair clipper and a shaver, and they were irradiated with UV rays once a day, 4 times a week and 8 times in total, whereby 4 parts of pigmentation having an area of about 2.25 cm^2 were formed on the backs of the respective guinea pigs.
Each 30 μL of an ethanol/propylene glycol (7:3) solution containing 0.05% of various acyl glucosamine derivatives shown in the following Table 7 was applied thereon in a frequency of once a day and five times a week over 4 weeks, and a change in the pigmentation was visually evaluated according to four degrees of the following evaluation criteria. The solution containing no acyl glucosamine derivative was used for a comparative example.

[7] abbreviates: Table 1, 50 μL once a day, total of erythema and edema.

The structures appear in SMILES notation.

For the compound `CC1=C(/C=C/C(C)=C/C=C/C(C)=C/C(=O)O)C(C)(C)CCC1` [Retinoic acid, reference compound], in data set [1] (setting [7]), the Draize score worked out at 8.0 points.
Turning to `CC(C=CC1=C(C)CCCC1(C)C)=CC=CC(C)=CC(=O)N[C@H]1C(O)O[C@H](CO)[C@@H](O)[C@@H]1O` (single isomer, unassigned) [N-retinoyl-D-glucosamine (9-cis isomer/13-cis isomer/trans i], the Draize score in data set [1] (setting [7]) stood at 0.1 points.
Still for that read-out and setting: under `CC(=O)OC[C@H]1OC(OC(C)=O)[C@H](NC(=O)/C=C(C)/C=C/C=C(C)/C=C/C2=C(C)CCCC2(C)C)[C@@H](OC(C)=O)[C@@H]1OC(C)=O` (stereo partly drawn) [1,3,4,6-tetra-O-acetyl-N-retinoyl-D-glucosamine] stands 0.0 points.
With `CC(=O)OC[C@H]1OC(OC(C)=O)[C@H](NC(=O)/C=C(C)/C=C/C=C(C)/C=C/C2=C(C)CCCC2(C)C)[C@@H](OC(C)=O)[C@@H]1OC(C)=O` (single isomer, unassigned) [1,3,4,6-tetra-O-acetyl-N-retinoyl-D-glucosamine (cis isomer/], in data set [1] (Table 2, by stereoisomer ratio), the Draize score turned out to be 0.0 points.
Take `CCCCC/C=C\C/C=C\CCCCCCCC(=O)N[C@H]1C(O)O[C@H](CO)[C@@H](O)[C@@H]1O` (stereo partly drawn) [N-linoleoyl-D-glucosamine]: the Draize score in data set [1] (setting [7]) turned out to be 0.3 points. For the same compound, in data set [2], the “Evaluation X (worsened), number of subjects” value (“Evaluation X (worsened)” for short) worked out at 1; the “Evaluation Δ (no change), number of subjects” value (from here on “Evaluation Δ (no change)”) was 3; the “Evaluation ⊚ (notably improved), number of subjects” value (shortened to “Evaluation ⊚ (notably improved)”) amounted to 0; the “Evaluation ◯ (improved), number of subjects” value (shortened to “Evaluation ◯ (improved)”) is reported as 1.
As for `CC(C)CCCCCCCCCCCCCCC(=O)N[C@H]1C(O)O[C@H](CO)[C@@H](O)[C@@H]1O` (stereo partly drawn) [N-isostearoyl-D-glucosamine], the Draize score in data set [1] (setting [7]) was found to be 0.1 points. Besides, in data set [2], the “Evaluation X (worsened)” value turned out to be 0; the “Evaluation Δ (no change)” value was found to be 2; the “Evaluation ⊚ (notably improved)” value is reported as 0; the “Evaluation ◯ (improved)” value was 3.
As for `CC(C=CC1=C(C)CCCC1(C)C)=CC=CC(C)=CC(=O)N[C@H]1C(O)O[C@H](CO)[C@@H](O)[C@@H]1O` (single isomer, unassigned) [N-retinoyl-D-glucosamine], the Skin roughness-improving rate in data set [3] came out at 127%. Further, in data set [4], the Wrinkle-improving rate was found to be 89%. Also, the Texture-improving rate in data set [5] is reported as 75%. In addition, in data set [2], the “Evaluation X (worsened)” value turned out to be 0; the “Evaluation Δ (no change)” value is recorded as 0; the “Evaluation ⊚ (notably improved)” value is 4; the “Evaluation ◯ (improved)” value was determined as 2. Further, the Acne treating effect in data set [2] (percentage of subjects rated improved or better) is 100%. Moreover, the Whitening-improving effect entry in data set [6] is “+++”.
Regarding `CC(=O)OC[C@H]1OC(OC(C)=O)[C@H](NC(=O)/C=C(C)/C=C/C=C(C)/C=C/C2=C(C)CCCC2(C)C)[C@@H](OC(C)=O)[C@@H]1OC(C)=O` (single isomer, unassigned) [1,3,4,6-tetra-O-acetyl-N-retinoyl-D-glucosamine (13-cis isom], the Draize score in data set [1] (Table 2, by stereoisomer ratio) is on record as 0.0 points.
On the same count and under the same terms, for `CC(C=CC1=C(C)CCCC1(C)C)=CC=CC(C)=CC(=O)N[C@H]1C(O)O[C@H](CO)[C@@H](O)[C@@H]1O` (single isomer, unassigned) [N-retinoyl-D-glucosamine (cis isomer/trans isomer = 0/100), N-retinoyl-D-glucosamine] the value was 0.0 points.
Compound `CCCCCCCC/C=C\CCCCCCCC(=O)N[C@H]1C(O)O[C@H](CO)[C@@H](O)[C@@H]1O` (stereo partly drawn) [N-oleoyl-D-glucosamine] displayed a Draize score in data set [1] (setting [7]) of 0.2 points. For the same compound, in data set [2], the “Evaluation X (worsened)” value stood at 0; the “Evaluation Δ (no change)” value worked out at 2; the “Evaluation ⊚ (notably improved)” value is given as 0; the “Evaluation ◯ (improved)” value came out at 3.
On to `CC(=O)OC[C@H]1OC(OC(C)=O)[C@H](NC(=O)/C=C(C)/C=C/C=C(C)/C=C/C2=C(C)CCCC2(C)C)[C@@H](OC(C)=O)[C@@H]1OC(C)=O` (single isomer, unassigned) [1,3,4,6-tetra-O-acetyl-N-retinoyl-D-glucosamine (9-cis isome] [listing 1 of 2 here], for which, in data set [1] (Table 2, by stereoisomer ratio), the Draize score is given as 0.0 points.
The same measure, in the same setting: for `CC(C=CC1=C(C)CCCC1(C)C)=CC=CC(C)=CC(=O)N[C@H]1C(O)O[C@H](CO)[C@@H](O)[C@@H]1O` (single isomer, unassigned) [N-retinoyl-D-glucosamine (13-cis isomer/trans isomer = 0.5/99.5), N-retinoyl-D-glucosamine] the value was 0.0 points.
Same read-out and setting: under `CC(C=CC1=C(C)CCCC1(C)C)=CC=CC(C)=CC(=O)N[C@H]1C(O)O[C@H](CO)[C@@H](O)[C@@H]1O` (single isomer, unassigned) [N-retinoyl-D-glucosamine (9-cis isomer/trans isomer = 0.5/99.5), N-retinoyl-D-glucosamine] stands 0.1 points; under `CC(=O)OC[C@H]1OC(OC(C)=O)[C@H](NC(=O)/C=C(C)/C=C/C=C(C)/C=C/C2=C(C)CCCC2(C)C)[C@@H](OC(C)=O)[C@@H]1OC(C)=O` (single isomer, unassigned) [1,3,4,6-tetra-O-acetyl-N-retinoyl-D-glucosamine (9-cis isome] [listing 2 of 2 here], 0.0 points.
For `CCCCCCCCCCCC(=O)N[C@H]1C(O)O[C@H](CO)[C@@H](O)[C@@H]1O` (stereo partly drawn) [N-lauroyl-D-glucosamine], the Draize score in data set [1] (setting [7]) came out at 0.1 points. Besides, in data set [2], the “Evaluation X (worsened)” value was 1; the “Evaluation Δ (no change)” value is reported as 1; the “Evaluation ⊚ (notably improved)” value was 0; the “Evaluation ◯ (improved)” value was found to be 1.
